{
  "source": "patent US20150374844A1",
  "about": "“NOVEL PH -SWITCHABLE PEPTIDES FOR MEMBRANE INSERTION AND PORE FORMATION” (UNIVERSITY OF PENNSYLVANIA, priority 2013, published 2015)",
  "key": {"[1]": {"assay": "siRNA co-transfection assay, cell viability", "type": "cell-based", "design": "concentration or dose not given beside the values", "settings": "co-transfection of peptide and siRNA", "from_the_text": "The protocol and siRNA reagent (target SSB gene) described in the following publication was followed: Bartz R, Fan H, Zhang J, Innocent N, Cherrin C, Beck S C, Pei Y, Momose A, Jadhav V, Tellers D M, Meng F, Crocker L S, Sepp-Lorenzino L, Barnett S F. Effective siRNA delivery and target mRNA degradation using an amphipathic peptide to facilitate pH-dependent endosomal escape. Biochem J. 2011; 435:475-87."}, "Red Blood Cells (RBCs)": {"tested_on": "Red Blood Cells (RBCs)", "assay": "Human red blood cell hemolysis assay (hemoglobin release)", "experimental": "Human Red Blood hemolysis assay was carried out as described below.\nAbout 5 ml human blood from healthy individuals were transferred into a 50 ml centrifuge tube and either re-suspended in 35 ml buffer pH 5.4 (150 mM NaCl, 20 mM MES) or pH 7.5 (150 mM NaCl, 20 mM Hepes). Red Blood Cells (RBCs) were washed 3 times with the appropriate buffer and finally re-suspended in a total of 50 ml buffer (pH 5.4 or 7.5). For the assay 175 μl of buffer solution (pH 5.4 or 7.5) was added into each well of a clear-bottom 96-well plate followed by 50 μl of re-suspended RBCs (approx. 2.5×10^7 cells) in the appropriate buffer (for RBC transfer wide bore pipet tips were used to avoid cell damage). Test PSPF peptides (New England Peptide TM) at the appropriate concentration were diluted in 25 μl PBS and then added to the cells. All steps were done with chilled buffers and on ice. The suspension was then mixed 6-8 times by pipetting with wide bore tips, the plate was covered and incubated at 37° C. for indicated time.\nAfter incubation the cells were centrifuged for 5 min at 500×g and 150 μl of the supernatant was transferred into a new 96-well clear-bottom plate. Absorbance at 541 nm was measured and hemolysis was normalized to RBCs which have been incubated in the presence of 1% Triton X-100 (100% hemolysis).\nRed blood cell (RBC) lysis assays was used to screen the functional efficacy of the PSPF peptides upon delivery (Table 5). The release of ATP, miRNA and hemoglobin has been studied at both pH 7.5 and 5.4.\nA desirable peptide should also negate membrane disruption, as assessed by leakage of proteins such as hemoglobin at both pH values. Therefore the peptides were first screened for hemolytic activity at both pH 7.5 and pH 5.4."}, "[2]": {"biological_target": "the molecule itself", "assay": "CD thermal denaturation of the hexamer, Gibbs-Helmholtz fit, pH 7.4", "experimental": "(§1) Furthermore, thermal denaturation by circular dichroism (CD) was used to study the thermal stability of the PSPF-EKG hexamer at multiple concentrations (2 μM, 4 μM and 20 μM), and at both pH 7.4 (FIG. 8A) and pH 5.5 (FIG. 8B). For each pH, to the curves were analyzed according to the Gibbs-Helmholtz Equation, using global least squares fitting of ΔHm, Tm and baselines. Tm was chosen as a global parameter defined with a reference concentration of 4 μM. ΔCp was also included, but over the range of experimental data examed, this parameter was not well defined."}, "[3]": {"biological_target": "the molecule itself", "assay": "size exclusion chromatography, self-association, pH 7.4 (Table 7 prints 6.6)", "experimental": "Size exclusion chromatography (SEC) of 100 μM PSPF-EKG and 100 μM PSPF-DKG were measured by AKTA FPLC machine (GE) using a Superdex 75 column (GE) eluted at pH 7.4 (50 mM Tris, 150 mM NaCl) and pH 5.5 (50 mM MES, 150 mM NaCl) respectively, at 25° C. Four standards were used: blue dextran (2,000,000 g/mol), carbonic anhydrase (29,000 g/mol), cytochrome C (12,400 g/mol) and aprotinin (6,500 g/mol). In order to test the effect of salt concentration upon peptide elution, the elutions of PSPF-EKG were also measured at pH 7.4 (50 mM Tris, 2M NaCl) and pH 5.5 (50 mM MES, […]), respectively.\nSize exclusion chromatography—The association state of the PSPF peptide PSPF-EKG was initially investigated by size exclusion chromatography (SEC) using a Superdex 75 column (GE Healthcare) eluted at pH 7.4 (150 mM NaCl, 50 mM Tris) and pH 5.5 (150 mM NaCl, 50 mM MES) respectively. In addition, PSPF-DKG was also investigated to determine the effect of substituting Asp for Glu on the stability of the water-soluble bundle at each pH. To determine the approximate oligomerization states, four standards were used, shown by blue eluting peaks in FIG. 4: blue dextran (2,000,000 g/mol), carbonic anhydrase (29,000 g/mol), cytochrome C (12,400 g/mol) and aprotinin (6,500 g/mol)."}, "[4]": {"biological_target": "the molecule itself", "assay": "CD thermal denaturation of the hexamer, Gibbs-Helmholtz fit, pH 5.5", "experimental": "as §1"}, "[5]": {"settings": "pH 5.4, compared to triton-x-100"}, "[6]": {"settings": "pH 7.5, compared to triton-x-100"}},
  "note": "No end group written: not given here.",
  "data": [
    {"molecule": "WSDLAKALSDLAKALSDLAKALSDLAKA [PSPF-DKA, WSDLAKA LSDLAKA LSDLAKA LSDLAKA]", "values": [
      {"measurement": "viability", "setting": "[1]", "value": 101, "unit": "%"},
      {"measurement": "Hemoglobin Release", "setting": "Red Blood Cells (RBCs); [5]", "value": "none"},
      {"measurement": "Hemoglobin Release", "setting": "Red Blood Cells (RBCs); [6]", "value": "none"}
    ]},
    {"molecule": "WSDLAKGLSDLAKGLSDLAKGLSDLAKG [PSPF-DKG, WSDLAKG LSDLAKG LSDLAKG LSDLAKG]", "values": [
      {"measurement": "viability", "setting": "[1]", "value": 104, "unit": "%"},
      {"measurement": "Hemoglobin Release", "setting": "Red Blood Cells (RBCs); [5]", "value": "none"},
      {"measurement": "Hemoglobin Release", "setting": "Red Blood Cells (RBCs); [6]", "value": "none"}
    ]},
    {"molecule": "WSDLAQALSDLAQALSDLAQALSDLAQA [PSPF-DQA, WSDLAQA LSDLAQA LSDLAQA LSDLAQA]", "values": [
      {"measurement": "viability", "setting": "[1]", "value": 100, "unit": "%"},
      {"measurement": "Hemoglobin Release", "setting": "Red Blood Cells (RBCs); [5]", "value": "none"},
      {"measurement": "Hemoglobin Release", "setting": "Red Blood Cells (RBCs); [6]", "value": "none"}
    ]},
    {"molecule": "WSDLAQGLSDLAQGLSDLAQGLSDLAQG [PSPF-DQG, WSDLAQG LSDLAQG LSDLAQG LSDLAQG]", "values": [
      {"measurement": "viability", "setting": "[1]", "value": 98, "unit": "%"},
      {"measurement": "Hemoglobin Release", "setting": "Red Blood Cells (RBCs); [5]", "value": "none"},
      {"measurement": "Hemoglobin Release", "setting": "Red Blood Cells (RBCs); [6]", "value": "none"}
    ]},
    {"molecule": "WSELAKALSELAKALSELAKALSELAKA [PSPF-EKA, WSELAKA LSELAKA LSELAKA LSELAKA]", "values": [
      {"measurement": "viability", "setting": "[1]", "value": 105, "unit": "%"},
      {"measurement": "Hemoglobin Release", "setting": "Red Blood Cells (RBCs); pH 5.4", "value": "none"},
      {"measurement": "Hemoglobin Release", "setting": "Red Blood Cells (RBCs); pH 7.5", "value": "none"}
    ]},
    {"molecule": "WSELAKGLSELAKGLSELAKGLSELAKG [PSPF-EKG, WSELAKG LSELAKG LSELAKG LSELAKG]", "values": [
      {"measurement": "viability", "setting": "[1]", "value": 102, "unit": "%"}
    ]},
    {"molecule": "WSELAQALSELAQALSELAQALSELAQA [PSPF-EQA, WSELAQA LSELAQA LSELAQA LSELAQA]", "values": [
      {"measurement": "viability", "setting": "[1]", "value": 103, "unit": "%"},
      {"measurement": "Hemoglobin Release", "setting": "Red Blood Cells (RBCs); pH 5.4", "value": "none"},
      {"measurement": "Hemoglobin Release", "setting": "Red Blood Cells (RBCs); pH 7.5", "value": "none"}
    ]},
    {"molecule": "WSELAQGLSELAQGLSELAQGLSELAQG [PSPF-EQG, WSELAQG LSELAQG LSELAQG LSELAQG]", "values": [
      {"measurement": "viability", "setting": "[1]", "value": 105, "unit": "%"},
      {"measurement": "Hemoglobin Release", "setting": "Red Blood Cells (RBCs); pH 5.4", "value": "none"},
      {"measurement": "Hemoglobin Release", "setting": "Red Blood Cells (RBCs); pH 7.5", "value": "none"}
    ]},
    {"molecule": "WSHLAKALSHLAKALSHLAKALSHLAKA [PSPF-HKA, WSHLAKA LSHLAKA LSHLAKA LSHLAKA]", "values": [
      {"measurement": "viability", "setting": "[1]", "value": 97, "unit": "%"},
      {"measurement": "Hemoglobin Release", "setting": "Red Blood Cells (RBCs); pH 5.4", "value": "none"},
      {"measurement": "Hemoglobin Release", "setting": "Red Blood Cells (RBCs); pH 7.5", "value": "none"}
    ]},
    {"molecule": "WSHLAKGLSHLAKGLSHLAKGLSHLAKG [PSPF-HKG, WSHLAKG LSHLAKG LSHLAKG LSHLAKG]", "values": [
      {"measurement": "viability", "setting": "[1]", "value": 102, "unit": "%"},
      {"measurement": "Hemoglobin Release", "setting": "Red Blood Cells (RBCs); pH 5.4", "value": "none"},
      {"measurement": "Hemoglobin Release", "setting": "Red Blood Cells (RBCs); pH 7.5", "value": "none"}
    ]},
    {"molecule": "WSHLAQALSHLAQALSHLAQALSHLAQA [PSPF-HQA, WSHLAQA LSHLAQA LSHLAQA LSHLAQA]", "values": [
      {"measurement": "viability", "setting": "[1]", "value": 105, "unit": "%"},
      {"measurement": "Hemoglobin Release", "setting": "Red Blood Cells (RBCs); pH 5.4", "value": "none"},
      {"measurement": "Hemoglobin Release", "setting": "Red Blood Cells (RBCs); pH 7.5", "value": "none"}
    ]},
    {"molecule": "WSHLAQGLSHLAQGLSHLAQGLSHLAQG [PSPF-HQG, WSHLAQG LSHLAQG LSHLAQG LSHLAQG]", "values": [
      {"measurement": "viability", "setting": "[1]", "value": 104, "unit": "%"},
      {"measurement": "Hemoglobin Release", "setting": "Red Blood Cells (RBCs); pH 5.4", "value": "none"},
      {"measurement": "Hemoglobin Release", "setting": "Red Blood Cells (RBCs); pH 7.5", "value": "none"}
    ]},
    {"molecule": "WSELAKGLSELAKGLSELAKGLSELAKG", "note": "[PSPF-EKG]", "values": [
      {"measurement": "[PSPF-EKG] at 50% fold and 300 K", "setting": "[2]", "value": 0.14, "unit": "µM"},
      {"measurement": "apparent molecular weight, fold of calculated molecular weight", "setting": "[3]", "value": 6.5, "unit": "fold"},
      {"measurement": "[PSPF-EKG] at 50% fold and 300 K", "setting": "[4]", "value": 0.31, "unit": "µM"}
    ]}
  ]
}
